Measurements from ChEMBL document CHEMBL1201862, “PubChem BioAssay data set” (2004).
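48-hour exposure; five concentrations; linearly interpolated endpoints. GI50 marks 50% less growth.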 Active and inactive are the calls of the source. Rule as the data show it: active = GI50 up to about 1.1 µM and inactive = higher.

Columns and labels:
Assay in all cases: growth of human tumour cells (NCI), 48 h
786-0 = test system: 786-0
A498 = test system: A498
A549 = test system: A549
ACHN = test system: ACHN
BT-549 = test system: BT-549
CAKI-1 = test system: CAKI-1
CCRF-CEM = test system: CCRF-CEM
COLO 205 = test system: COLO 205
DU-145 = test system: DU-145
EKVX = test system: EKVX
HCC 2998 = test system: HCC 2998
HCT-116 = test system: HCT-116
HCT-15 = test system: HCT-15
HL-60 = test system: HL-60
HOP-62 = test system: HOP-62
HOP-92 = test system: HOP-92
HT-29 = test system: HT-29
Hs-578T = test system: Hs-578T
IGROV-1 = test system: IGROV-1
K562 = test system: K562
KM12 = test system: KM12
LOX IMVI = test system: LOX IMVI
M14 = test system: M14
MCF7 = test system: MCF7
MDA-MB-231 = test system: MDA-MB-231
MDA-MB-435 = test system: MDA-MB-435
MDA-N = test system: MDA-N
MOLT-4 = test system: MOLT-4
Malme-3M = test system: Malme-3M
NCI-H226 = test system: NCI-H226
NCI-H23 = test system: NCI-H23
NCI-H460 = test system: NCI-H460
NCI/ADR-RES = test system: NCI/ADR-RES
OVCAR-3 = test system: OVCAR-3
OVCAR-4 = test system: OVCAR-4
OVCAR-5 = test system: OVCAR-5
OVCAR-8 = test system: OVCAR-8
PC-3 = test system: PC-3
RPMI-8226 = test system: RPMI-8226
RXF 393 = test system: RXF 393
SF-268 = test system: SF-268
SF-295 = test system: SF-295
SF-539 = test system: SF-539
SK-MEL-28 = test system: SK-MEL-28
SK-MEL-5 = test system: SK-MEL-5
SK-OV-3 = test system: SK-OV-3
SN12C = test system: SN12C
SNB-19 = test system: SNB-19
SNB-75 = test system: SNB-75
SW-620 = test system: SW-620
T47D = test system: T47D
TK-10 = test system: TK-10
U-251 = test system: U-251
UACC-257 = test system: UACC-257
UACC-62 = test system: UACC-62
UO-31 = test system: UO-31
NCI-H522 = test system: NCI-H522
SK-MEL-2 = test system: SK-MEL-2

Cc1cnccc1/N=N/c1ccc(N(C)C)cc1
GI50 (786-0): 42.2 µM (inactive)
GI50 (A498): 28.3 µM (inactive)
GI50 (A549): 30.7 µM (inactive)
GI50 (ACHN): 20.5 µM (inactive)
GI50 (BT-549): 15.9 µM (inactive)
GI50 (CAKI-1): 25.9 µM (inactive)
GI50 (CCRF-CEM): 37 µM (inactive)
GI50 (COLO 205): 11.9 µM (inactive)
GI50 (DU-145): 66.8 µM (inactive)
GI50 (EKVX): 9.55 µM (inactive)
GI50 (HCC 2998): 13.5 µM (inactive)
GI50 (HCT-116): 22.9 µM (inactive)
GI50 (HCT-15): 15.1 µM
GI50 (HL-60): 47.5 µM (inactive)
GI50 (HOP-62): 56.5 µM (inactive)
GI50 (HOP-92): 9.38 µM (inactive)
GI50 (HT-29): 23.1 µM (inactive)
GI50 (Hs-578T): 29.9 µM (inactive)
GI50 (IGROV-1): 7.8 µM (inactive)
GI50 (K562): 18.6 µM (inactive)
GI50 (KM12): 20.3 µM (inactive)
GI50 (LOX IMVI): 17.4 µM (inactive)
GI50 (M14): 41.5 µM (inactive)
GI50 (MCF7): 14.4 µM (inactive)
GI50 (MDA-MB-231): 16.3 µM (inactive)
GI50 (MDA-MB-435): 7.6 µM (inactive)
GI50 (MDA-N): 8.32 µM (inactive)
GI50 (MOLT-4): 31.3 µM (inactive)
GI50 (Malme-3M): 35.7 µM (inactive)
GI50 (NCI-H226): 4.82 µM (inactive)
GI50 (NCI-H23): 24.4 µM (inactive)
GI50 (NCI-H460): 25.7 µM (inactive)
GI50 (NCI/ADR-RES): 13 µM (inactive)
GI50 (OVCAR-3): 19.6 µM (inactive)
GI50 (OVCAR-4): 16.9 µM (inactive)
GI50 (OVCAR-5): 28 µM (inactive)
GI50 (OVCAR-8): 22.1 µM (inactive)
GI50 (PC-3): 26.6 µM (inactive)
GI50 (RPMI-8226): 18.5 µM (inactive)
GI50 (RXF 393): 14.9 µM (inactive)
GI50 (SF-268): 16.8 µM (inactive)
GI50 (SF-295): 21.4 µM (inactive)
GI50 (SF-539): 19.6 µM (inactive)
GI50 (SK-MEL-28): 22.3 µM (inactive)
GI50 (SK-MEL-5): 15 µM (inactive)
GI50 (SK-OV-3): 16.7 µM (inactive)
GI50 (SN12C): 21.9 µM (inactive)
GI50 (SNB-19): 40 µM (inactive)
GI50 (SNB-75): 14.5 µM (inactive)
GI50 (SW-620): 22.4 µM (inactive)
GI50 (T47D): 48.6 µM (inactive)
GI50 (TK-10): 17.2 µM (inactive)
GI50 (U-251): 21.3 µM (inactive)
GI50 (UACC-257): 22.3 µM (inactive)
GI50 (UACC-62): 13.8 µM (inactive)
GI50 (UO-31): 18.1 µM (inactive)

CSc1nc(Br)nc2c1ncn2C1CC(Oc2ccc(C)cc2)C(COc2ccc(C)cc2)O1 (stereo unspecified)
GI50 (786-0): > 100 µM (inactive)
GI50 (A498): > 100 µM (inactive)
GI50 (A549): > 100 µM (inactive)
GI50 (ACHN): 33.7 µM (inactive)
GI50 (BT-549): > 100 µM (inactive)
GI50 (CAKI-1): > 100 µM (inactive)
GI50 (CCRF-CEM): > 100 µM (inactive)
GI50 (COLO 205): > 100 µM (inactive)
GI50 (DU-145): > 100 µM (inactive)
GI50 (EKVX): > 100 µM (inactive)
GI50 (HCC 2998): > 100 µM (inactive)
GI50 (HCT-116): > 100 µM (inactive)
GI50 (HCT-15): > 100 µM
GI50 (HL-60): > 100 µM (inactive)
GI50 (HOP-62): > 100 µM (inactive)
GI50 (HOP-92): > 100 µM (inactive)
GI50 (HT-29): > 100 µM (inactive)
GI50 (Hs-578T): 25.2 µM (inactive)
GI50 (IGROV-1): > 100 µM (inactive)
GI50 (KM12): > 100 µM (inactive)
GI50 (LOX IMVI): > 100 µM (inactive)
GI50 (M14): > 100 µM (inactive)
GI50 (MCF7): > 100 µM (inactive)
GI50 (MDA-MB-231): 61.2 µM (inactive)
GI50 (MDA-MB-435): > 100 µM (inactive)
GI50 (MDA-N): > 100 µM (inactive)
GI50 (MOLT-4): > 100 µM (inactive)
GI50 (Malme-3M): > 100 µM (inactive)
GI50 (NCI-H226): > 100 µM (inactive)
GI50 (NCI-H23): 40.8 µM (inactive)
GI50 (NCI-H460): > 100 µM (inactive)
GI50 (NCI-H522): > 100 µM (inactive)
GI50 (NCI/ADR-RES): > 100 µM (inactive)
GI50 (OVCAR-3): > 100 µM (inactive)
GI50 (OVCAR-4): 83 µM (inactive)
GI50 (OVCAR-5): > 100 µM (inactive)
GI50 (OVCAR-8): > 100 µM (inactive)
GI50 (PC-3): > 100 µM (inactive)
GI50 (RPMI-8226): 93.8 µM (inactive)
GI50 (SF-268): > 100 µM (inactive)
GI50 (SF-295): > 100 µM (inactive)
GI50 (SF-539): > 100 µM (inactive)
GI50 (SK-MEL-28): > 100 µM (inactive)
GI50 (SK-MEL-2): > 100 µM (inactive)
GI50 (SK-MEL-5): > 100 µM (inactive)
GI50 (SK-OV-3): > 100 µM (inactive)
GI50 (SN12C): > 100 µM (inactive)
GI50 (SNB-19): 22.5 µM (inactive)
GI50 (SNB-75): 23.3 µM (inactive)
GI50 (SW-620): > 100 µM (inactive)
GI50 (T47D): > 100 µM (inactive)
GI50 (TK-10): > 100 µM (inactive)
GI50 (U-251): > 100 µM (inactive)
GI50 (UACC-257): > 100 µM (inactive)
GI50 (UACC-62): > 100 µM (inactive)

CC1=CC(=O)/C(=C/N2CCNC2=S)C(=O)O1
GI50 (786-0): > 100 µM (inactive)
GI50 (A498): > 100 µM (inactive)
GI50 (A549): > 100 µM (inactive)
GI50 (ACHN): > 100 µM (inactive)
GI50 (BT-549): > 100 µM (inactive)
GI50 (CAKI-1): > 100 µM (inactive)
GI50 (CCRF-CEM): > 100 µM (inactive)
GI50 (COLO 205): > 100 µM (inactive)
GI50 (DU-145): > 100 µM (inactive)
GI50 (EKVX): > 100 µM (inactive)
GI50 (HCC 2998): > 100 µM (inactive)
GI50 (HCT-116): > 100 µM (inactive)
GI50 (HCT-15): > 100 µM
GI50 (HL-60): > 100 µM (inactive)
GI50 (HOP-62): > 100 µM (inactive)
GI50 (HOP-92): > 100 µM (inactive)
GI50 (HT-29): > 100 µM (inactive)
GI50 (Hs-578T): > 100 µM (inactive)
GI50 (IGROV-1): > 100 µM (inactive)
GI50 (K562): > 100 µM (inactive)
GI50 (KM12): > 100 µM (inactive)
GI50 (LOX IMVI): > 100 µM (inactive)
GI50 (M14): > 100 µM (inactive)
GI50 (MCF7): > 100 µM (inactive)
GI50 (MDA-MB-231): > 100 µM (inactive)
GI50 (MDA-MB-435): > 100 µM (inactive)
GI50 (MDA-N): > 100 µM (inactive)
GI50 (MOLT-4): > 100 µM (inactive)
GI50 (NCI-H226): > 100 µM (inactive)
GI50 (NCI-H23): > 100 µM (inactive)
GI50 (NCI-H460): > 100 µM (inactive)
GI50 (NCI-H522): > 100 µM (inactive)
GI50 (NCI/ADR-RES): > 100 µM (inactive)
GI50 (OVCAR-4): > 100 µM (inactive)
GI50 (OVCAR-5): > 100 µM (inactive)
GI50 (OVCAR-8): > 100 µM (inactive)
GI50 (PC-3): > 100 µM (inactive)
GI50 (RPMI-8226): > 100 µM (inactive)
GI50 (RXF 393): > 100 µM (inactive)
GI50 (SF-268): > 100 µM (inactive)
GI50 (SF-295): > 100 µM (inactive)
GI50 (SF-539): > 100 µM (inactive)
GI50 (SK-MEL-2): > 100 µM (inactive)
GI50 (SK-MEL-5): 97.3 µM (inactive)
GI50 (SK-OV-3): > 100 µM (inactive)
GI50 (SN12C): > 100 µM (inactive)
GI50 (SNB-19): > 100 µM (inactive)
GI50 (SNB-75): 89.7 µM (inactive)
GI50 (SW-620): > 100 µM (inactive)
GI50 (T47D): > 100 µM (inactive)
GI50 (TK-10): > 100 µM (inactive)
GI50 (U-251): > 100 µM (inactive)
GI50 (UACC-257): > 100 µM (inactive)
GI50 (UACC-62): > 100 µM (inactive)
GI50 (UO-31): > 100 µM (inactive)
